Test results taken from patent US12077555B2, “STAT degraders and uses thereof” (Kymera Therapeutics, Inc., priority 2019, dated 2024).
Like-named read-outs stand apart in the source and are kept apart here.

Molecular target: STAT3 (Homo sapiens, UniProt P40763)
Test: Quantitation of STAT3 degradation in A549 cells by Western blot
Type: cell-based
Set-up: expressed in transfected cells; host or cells: A549
Protocol: Degradation of total cellular STAT3 protein in A549 was quantitatively measured using SDS-PAGE and Western blot analysis. A549 cells (5×10^5 cells/well, 2 mL) were seeded into 6-well plates and were incubated in the incubator under 5% CO2 overnight to reach ˜80% confluency. The next day, the culture medium was changed with 1 ml fresh media. Then, 1 mL of media containing 2× compound solution was added into the well to make the final concentration of 30 μM, 10 μM, 3 μM, 1 μM, 0.3 μM and 0 μM (DMSO). The media was thoroughly mixed and incubated for 24 hours at 37° C. under 5% CO2. Then, the culture media was removed from the assay plates and the cells were washed with ice-cold PBS twice. To prepare cell lysates, 200 ul pre-chilled RIPA lysis buffer (Boston BioProducts BP-115D) with protease/phosphatase inhibitor (Roche 05892791001/Roche 04906837001) was added directly into the well to lyse the cells for 20 minutes on ice. The cell lysates were then transferred to centrifuge tubes. Insoluble part of lysates was removed by centrifuging the lysates at 13000 rpm for 20 minutes. The supernatant was then collected and mixed with 5× loading buffer (Beyotime Bio P0015) to make the final samples for SDS-PAGE analysis. The samples were heated at 100° C. for 10 minutes and cool to room temperature before centrifuging at 13000 rpm for 20 minutes. To analyze the samples by SDS-PAGE, 10 ul samples were loaded onto SDS-PAGE gel (Novex, WG1403BOX) and the SDS-PAGE gel was run for 20 minutes at 80 V, then at 120 V for 1.5 hours. The SDS-PAGE gel was then transferred to nitrocellulose membrane using the wet-transfer method at 250 mA for 1.5 hours. The membrane was then blocked with LI-COR blocking buffer (LI-COR, 927-50000) for 1 hour and was probed with primary antibody (mouse anti-STAT3 (124H6) (CST #91395) 1:2000 or mouse anti-beta-Actin (8H10D10) (CST #3700) 1:10000) at 4° C. overnight. The membrane was then washed three times with TBST buffer and probed with secondary antibody (anti-mouse IgG (LI-COR, 926-68070), 1:5000) for 1 hour at room temperature. The membrane was then scanned on a LI-COR Odyssey instrument and was quantified using Image Studio Version 5.2. Concentration at 50% degradation (DC50) was calculated by fitting dose dependent degradation data using a sigmoidal equation using GraphPad Prism Version 8.0.

[1] = read-out: A549 DC50, 24 hours, tested up to 30 μM or 10 μM
[2] = 24 hours, tested up to 30 μM or 10 μM, read-out: A549 DC50

STAT3, sequence (P40763 whole entry): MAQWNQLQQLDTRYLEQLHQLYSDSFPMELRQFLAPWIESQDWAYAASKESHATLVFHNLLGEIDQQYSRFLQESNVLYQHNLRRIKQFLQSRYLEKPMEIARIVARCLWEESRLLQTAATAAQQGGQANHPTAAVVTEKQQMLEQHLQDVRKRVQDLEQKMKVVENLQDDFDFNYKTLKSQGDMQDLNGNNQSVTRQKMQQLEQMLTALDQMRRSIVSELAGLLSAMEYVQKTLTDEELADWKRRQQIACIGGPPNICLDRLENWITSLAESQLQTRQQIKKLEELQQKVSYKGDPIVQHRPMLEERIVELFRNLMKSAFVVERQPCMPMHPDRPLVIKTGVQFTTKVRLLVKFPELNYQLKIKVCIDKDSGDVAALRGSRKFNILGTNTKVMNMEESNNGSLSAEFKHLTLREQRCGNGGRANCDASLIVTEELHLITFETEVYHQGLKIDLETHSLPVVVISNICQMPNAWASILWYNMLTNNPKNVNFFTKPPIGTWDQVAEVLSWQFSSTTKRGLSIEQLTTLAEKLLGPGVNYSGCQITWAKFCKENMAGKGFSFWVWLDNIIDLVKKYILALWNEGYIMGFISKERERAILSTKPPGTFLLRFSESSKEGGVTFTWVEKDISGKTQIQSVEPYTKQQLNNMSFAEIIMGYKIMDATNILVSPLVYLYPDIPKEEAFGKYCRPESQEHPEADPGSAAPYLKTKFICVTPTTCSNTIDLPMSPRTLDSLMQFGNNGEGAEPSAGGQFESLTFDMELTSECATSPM

Row | SMILES | DC50 [1] [µM] | DC50 [2] [µM]
1 | C/C(=C\C(=O)N[C@H]1CCc2cccc3c2N(C1=O)[C@H](C(=O)N[C@@H](CCC(N)=O)[C@@H](C)OCc1ccc(CCOCCCc2cccc4c2n(C)c(=O)n4C2CCC(=O)NC2=O)cc1)C3)c1ccc(C(F)(F)P(=O)(OCOC(=O)C(C)(C)C)OCOC(=O)C(C)(C)C)cc1 (stereo partly drawn) [Compound I-9, [([4-[(1E)-1-[[(2S,11S)-2-[[(3S,4R)-1-carbamoyl-4-[[4-(2-[3-[1-(2,6-dioxopiperidin-3-yl)-3-methyl-2-oxo-1,3-benzodiazol-4-yl]propoxy]ethyl)phenyl]methoxy]pentan-3-yl]carbamoyl]-12-oxo-1-azatricyclo[6.4.1.0^[4,13]]trideca-4(13),5,7-trien-11-yl]carbamoyl]prop-1-en-2-yl]phenyl]difluoromethyl([(2,2-dimethylpropanoyl)oxy]methoxy)phosphoryl)oxy]methyl 2,2-dimethylpropanoate] | > 30 | –
2 | C/C(=C\C(=O)N[C@H]1CCc2cccc3c2N(C1=O)[C@H](C(=O)N[C@@H](CCC(N)=O)[C@@H](C)OCc1ccc(CCCOCCCc2cccc4c2n(C)c(=O)n4C2CCC(=O)NC2=O)cc1)C3)c1ccc(C(F)(F)P(=O)(OCOC(=O)C(C)(C)C)OCOC(=O)C(C)(C)C)cc1 (stereo partly drawn) [Compound I-10, [([4-[(1E)-1-[[(2S,11S)-2-[[(3S,4R)-1-carbamoyl-4-[[4-(3-[3-[1-(2,6-dioxopiperidin-3-yl)-3-methyl-2-oxo-1,3-benzodiazol-4-yl]propoxy]propyl)phenyl]methoxy]pentan-3-yl]carbamoyl]-12-oxo-1-azatricyclo[6.4.1.0^[4,13]]trideca-4(13),5,7-trien-11-yl]carbamoyl]prop-1-en-2-yl]phenyl]difluoromethyl([(2,2-dimethylpropanoyl)oxy]methoxy)phosphoryl)oxy]methyl 2,2-dimethylpropanoate] | > 30 | –
3 | C/C(=C\C(=O)N[C@H]1CCc2cccc3c2N(C1=O)[C@H](C(=O)N[C@@H](CCC(N)=O)[C@@H](C)OCc1ccc(C(=O)N[C@H](C(=O)N2C[C@H](O)CC2C(=O)NCc2ccc(-c4scnc4C)cc2)C(C)(C)C)cc1)C3)c1ccc(C(F)(F)P(=O)(OCOC(=O)C(C)(C)C)OCOC(=O)C(C)(C)C)cc1 (stereo partly drawn) [Compound I-11] | > 30 | –
4 | C/C(=C\C(=O)N[C@H]1CCc2cccc3c2N(C1=O)[C@H](C(=O)N[C@@H](CCC(N)=O)[C@@H](C)OCc1ccc(CCC(=O)N[C@H](C(=O)N2C[C@H](O)CC2C(=O)NCc2ccc(-c4scnc4C)cc2)C(C)(C)C)cc1)C3)c1ccc(C(F)(F)P(=O)(OCOC(=O)C(C)(C)C)OCOC(=O)C(C)(C)C)cc1 (stereo partly drawn) [Compound I-12] | > 30 | –
5 | C/C(=C\C(=O)N[C@H]1CCc2cccc3c2N(C1=O)[C@H](C(=O)N[C@@H](CCC(N)=O)[C@@H](C)OCc1ccc(CCOCC(=O)N[C@H](C(=O)N2C[C@H](O)C[C@H]2C(=O)NCc2ccc(-c4scnc4C)cc2)C(C)(C)C)cc1)C3)c1ccc(C(F)(F)P(=O)(OCOC(=O)C(C)(C)C)OCOC(=O)C(C)(C)C)cc1 [Compound I-13] | – | < 30
6 | C/C(=C\C(=O)N[C@H]1CCc2cccc3c2N(C1=O)[C@H](C(=O)N[C@@H](CCC(N)=O)[C@@H](C)OCc1ccc(CCCOCCOCCOCCOCCOc2cc(-c4scnc4C)ccc2CNC(=O)[C@@H]2C[C@@H](O)CN2C(=O)[C@@H](NC(=O)C2(F)CC2)C(C)(C)C)cc1)C3)c1ccc(C(F)(F)P(=O)(OCOC(=O)C(C)(C)C)OCOC(=O)C(C)(C)C)cc1 [Compound I-16] | – | > 30
7 | C/C(=C\C(=O)N[C@H]1CCc2cccc3c2N(C1=O)[C@H](C(=O)N[C@@H](CCC(N)=O)[C@@H](C)OCc1ccc(CCCOCCOCCOCCOc2cc(-c4scnc4C)ccc2CNC(=O)[C@@H]2C[C@@H](O)CN2C(=O)[C@@H](NC(=O)C2(F)CC2)C(C)(C)C)cc1)C3)c1ccc(C(F)(F)P(=O)(OCOC(=O)C(C)(C)C)OCOC(=O)C(C)(C)C)cc1 [Compound I-17] | > 30 | –
8 | C/C(=C\C(=O)N[C@H]1CCc2cccc3c2N(C1=O)[C@H](C(=O)N[C@@H](CCC(N)=O)[C@@H](C)OCc1ccc(CCCCOCC(=O)N[C@H](C(=O)N2C[C@@H](O)C[C@H]2C(=O)NCc2ccc(-c4scnc4C)cc2)C(C)(C)C)cc1)C3)c1ccc(C(F)(F)P(=O)(OCOC(=O)C(C)(C)C)OCOC(=O)C(C)(C)C)cc1 [Compound I-21] | > 30 | –
9 | C/C(=C\C(=O)N[C@H]1CCc2cccc3c2N(C1=O)[C@H](C(=O)N[C@@H](CCC(N)=O)[C@@H](C)OCc1ccc(CCCCOc2cc(-c4scnc4C)ccc2CNC(=O)[C@@H]2C[C@@H](O)CN2C(=O)[C@@H](NC(=O)C2(F)CC2)C(C)(C)C)cc1)C3)c1ccc(C(F)(F)P(=O)(OCOC(=O)C(C)(C)C)OCOC(=O)C(C)(C)C)cc1 [Compound I-26] | > 10 | –
10 | C/C(=C\C(=O)N[C@H]1CCc2cccc3c2N(C1=O)[C@H](C(=O)N[C@@H](CCC(N)=O)[C@@H](C)OCc1ccc(CCOCCOCCOCCOCC(=O)N[C@H](C(=O)N2C[C@H](O)C[C@H]2C(=O)NCc2ccc(-c4scnc4C)cc2)C(C)(C)C)cc1)C3)c1ccc(C(F)(F)P(=O)(OCOC(=O)C(C)(C)C)OCOC(=O)C(C)(C)C)cc1 [Compound I-27] | > 10 | –
11 | C/C(=C\C(=O)N[C@H]1CCc2cccc3c2N(C1=O)[C@H](C(=O)N[C@@H](CCC(N)=O)[C@@H](C)OCc1ccc(CCCCCCC(=O)N[C@H](C(=O)N2C[C@H](O)C[C@H]2C(=O)NCc2ccc(-c4scnc4C)cc2)C(C)(C)C)cc1)C3)c1ccc(C(F)(F)P(=O)(OCOC(=O)C(C)(C)C)OCOC(=O)C(C)(C)C)cc1 [Compound I-28] | < 30 | –
12 | C/C(=C\C(=O)N[C@H]1CCc2cccc3c2N(C1=O)[C@H](C(=O)N[C@@H](CCC(N)=O)[C@@H](C)OCc1ccc(CCCOCCCCCc2cccc4c2n(C)c(=O)n4C2CCC(=O)NC2=O)cc1)C3)c1ccc(C(F)(F)P(=O)(OCOC(=O)C(C)(C)C)OCOC(=O)C(C)(C)C)cc1 (stereo partly drawn) [Compound I-29] | > 10 | –
13 | C/C(=C\C(=O)N[C@H]1CCc2cccc3c2N(C1=O)[C@H](C(=O)N[C@@H](CCC(N)=O)[C@@H](C)OCc1ccc(CCOCCOCCOCC(=O)N[C@H](C(=O)N2C[C@H](O)C[C@H]2C(=O)NCc2ccc(-c4scnc4C)cc2)C(C)(C)C)cc1)C3)c1ccc(C(F)(F)P(=O)(OCOC(=O)C(C)(C)C)OCOC(=O)C(C)(C)C)cc1 [Compound I-30] | > 10 | –
14 | C/C(=C\C(=O)N[C@H]1CCc2cccc3c2N(C1=O)[C@H](C(=O)N[C@@H](CCC(N)=O)[C@@H](C)OCc1ccc(CCOCCOCC(=O)N[C@H](C(=O)N2C[C@H](O)C[C@H]2C(=O)NCc2ccc(-c4scnc4C)cc2)C(C)(C)C)cc1)C3)c1ccc(C(F)(F)P(=O)(OCOC(=O)C(C)(C)C)OCOC(=O)C(C)(C)C)cc1 [Compound I-31] | > 30 | –
15 | C/C(=C\C(=O)N[C@H]1CCc2cccc3c2N(C1=O)[C@H](C(=O)NC(CCC(N)=O)[C@@H](C)OCc1ccc(CCCOCCOCCOCCOCC(=O)N[C@H](C(=O)N2C[C@H](O)C[C@H]2C(=O)NCc2ccc(-c4scnc4C)cc2)C(C)(C)C)cc1)C3)c1ccc(C(F)(F)P(=O)(OCOC(=O)C(C)(C)C)OCOC(=O)C(C)(C)C)cc1 (stereo partly drawn) [Compound I-32] | > 10 | –
16 | C/C(=C\C(=O)N[C@H]1CCc2cccc3c2N(C1=O)[C@H](C(=O)NC(CCC(N)=O)[C@@H](C)OCc1ccc(CCCOCCOCCOCC(=O)N[C@H](C(=O)N2C[C@H](O)C[C@H]2C(=O)NCc2ccc(-c4scnc4C)cc2)C(C)(C)C)cc1)C3)c1ccc(C(F)(F)P(=O)(OCOC(=O)C(C)(C)C)OCOC(=O)C(C)(C)C)cc1 (stereo partly drawn) [Compound I-33] | > 10 | –
17 | C/C(=C\C(=O)N[C@H]1CCc2cccc3c2N(C1=O)[C@H](C(=O)NC(CCC(N)=O)[C@@H](C)OCc1ccc(CCCCOCC(=O)N[C@H](C(=O)N2C[C@H](O)C[C@H]2C(=O)NCc2ccc(-c4scnc4C)cc2)C(C)(C)C)cc1)C3)c1ccc(C(F)(F)P(=O)(OCOC(=O)C(C)(C)C)OCOC(=O)C(C)(C)C)cc1 (stereo partly drawn) [Compound I-34] | < 30 | –
18 | C/C(=C\C(=O)N[C@H]1CCc2cccc3c2N(C1=O)[C@H](C(=O)NC(CCC(N)=O)[C@@H](C)OCc1ccc(CCCOCC(=O)N[C@H](C(=O)N2C[C@H](O)CC2C(=O)NCc2ccc(-c4scnc4C)cc2)C(C)(C)C)cc1)C3)c1ccc(C(F)(F)P(=O)(OCOC(=O)C(C)(C)C)OCOC(=O)C(C)(C)C)cc1 (stereo partly drawn) [Compound I-35] | < 30 | –
